From article PMC9767854, “Discovery and mechanism studies of a novel ATG4B inhibitor Ebselen by drug repurposing and its anti-colorectal cancer effects in mice” (Cell & Bioscience, 2022) come the findings set out here.

Experiment [1] concerns the target T1, ATG4B (Homo sapiens, UniProt Q9Y4P1).
T1 construct: 6xHis; made in house; host or cells: E. coli BL21(DE3)
T1 sequence (Q9Y4P1 1-393): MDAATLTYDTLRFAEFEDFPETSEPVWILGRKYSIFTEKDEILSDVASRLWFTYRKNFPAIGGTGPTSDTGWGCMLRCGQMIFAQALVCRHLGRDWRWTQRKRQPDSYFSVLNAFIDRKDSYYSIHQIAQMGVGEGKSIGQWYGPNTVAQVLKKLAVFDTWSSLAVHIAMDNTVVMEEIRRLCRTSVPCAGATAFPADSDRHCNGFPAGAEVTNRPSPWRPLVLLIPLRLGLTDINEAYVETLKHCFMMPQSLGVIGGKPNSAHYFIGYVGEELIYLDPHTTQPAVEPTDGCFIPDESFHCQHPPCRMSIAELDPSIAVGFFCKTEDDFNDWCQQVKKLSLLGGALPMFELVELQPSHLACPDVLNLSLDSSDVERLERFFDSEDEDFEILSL
Nature of the experiment: Denaturing mass spectrometry of covalent binding. Conditions: ATG4B 20 μM, compound 60 μM, 1 h at 37 °C; shift of 275 Da on 57,200 Da form. On the procedure:
Analysis of covalent binding between protein and ligand was performed by denaturing mass spectrometry. ATG4B WT and related mutant (20 μM) were incubated with or without compound (60 μM) in phosphate buffer for 1 h at 37℃. Then the samples were desalted using ultrafiltration spin columns (0.5 ml, 10 kDa MWCO, PES, Sartorius) and buffer-exchanged into Milli-Q water. Subsequently, samples were diluted containing 0.1% v/v formic acid before being subjected to denaturing electrospray ionization mass spectrometry analysis (TOF, Waters, SYNAPT G2-Si). Spectrum data were processed with MassLynx (Waters).

The test system of experiment [2] is HCT116 based xenograft. Description: HCT116 subcutaneous xenograft tumor model. Conditions: i.p., compared with SW620 xenografts. Type of experiment: in vivo, BALB/c-nu/nu mice. On the procedure:
(§1) Four- to six-weeks-old BALB/C nu/nu female mice purchased from the Experimental Animal Center of Sun Yat-Sen University, were approved by the Animal Ethics Committee at Sun Yat-sen University and kept in specific-pathogen-free environment. Approximately 2 × 10^6 SW620 cells or 1 × 10^7 HCT116 cells were injected subcutaneously into the dorsal flank on the right side of the mice. Different groups were divided randomly when the tumor volume was approximately 60–80 mm^3, before drug administration intraperitoneally (i.p.). Tumor volume was measured by calipers and calculated using the equation: 0.5 × length × width^2. At the end of the experiments, the mice were sacrificed and tumors were dissected and weighed. In particular, we employed Servicebio (Wuhan, China) to carry out H&E staining and immunohistochemistry assay.
Supplementary file 13578_2022_944_MOESM1_ESM.docx: Additional file 1: Figure S1. Screening of ATG4B inhibitors based on the approved drugs library by FRET assay. […] (D) Candidate compound number and name correspondence table, and IC50 calculation of nine commercially available compounds for ATG4B by FRET assay. Figure S2. […] Figure S3. […] Figure S5. […] Figure S6.

Experiment [3] deals with T2, ATG4B C74S mutant (Homo sapiens, UniProt Q9Y4P1, C74S).
T2 construct: 6xHis; made in house; host or cells: E. coli BL21(DE3)
T2 sequence (Q9Y4P1 whole entry C74S): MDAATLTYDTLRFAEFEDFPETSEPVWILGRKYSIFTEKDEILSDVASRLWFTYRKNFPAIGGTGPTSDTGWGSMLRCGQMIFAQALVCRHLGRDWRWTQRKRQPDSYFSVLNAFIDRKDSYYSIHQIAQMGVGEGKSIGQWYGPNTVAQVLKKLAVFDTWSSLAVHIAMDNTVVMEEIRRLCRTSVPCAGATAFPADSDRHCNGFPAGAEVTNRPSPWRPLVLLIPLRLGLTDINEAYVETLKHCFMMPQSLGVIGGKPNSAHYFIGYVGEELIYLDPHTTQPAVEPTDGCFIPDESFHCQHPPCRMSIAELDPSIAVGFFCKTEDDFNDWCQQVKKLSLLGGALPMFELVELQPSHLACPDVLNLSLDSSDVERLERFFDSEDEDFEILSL
Description: In vitro thermal shift assay, ATG4B C74S mutant. It counts as binding. The note with it: C74S mutant 100 nM, Ebselen 1 μM, compared with DMSO. As for the experimental part:
For in vitro thermal shift assay, recombinant protein ATG4B or C74S mutant (100 nM) was incubated with Ebselen (1 μM) (DMSO as control) in the PCR tubes. The PCR instrument program was set at 25 °C for 10 min, 37 °C to 70 °C for 30 min and followed by cooling tubes for 5 min at room temperature. Then centrifuged at 12,000 rpm for 10 min at 4 °C, soluble fractions were separated from precipitates to be analyzed by SDS-PAGE and immunoblotting.

Experiment [4] deals with T3, Caspase 3 (Homo sapiens, UniProt P42574).
T3 construct: Beyotime (assay kit only) C1115
T3 sequence (P42574 29-175 limits assumed, species assumed): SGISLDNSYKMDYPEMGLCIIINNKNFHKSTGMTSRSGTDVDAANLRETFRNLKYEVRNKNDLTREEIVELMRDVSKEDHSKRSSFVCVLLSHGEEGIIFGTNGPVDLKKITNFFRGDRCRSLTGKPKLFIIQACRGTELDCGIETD
T3 sequence (P42574 176-277 limits assumed, species assumed): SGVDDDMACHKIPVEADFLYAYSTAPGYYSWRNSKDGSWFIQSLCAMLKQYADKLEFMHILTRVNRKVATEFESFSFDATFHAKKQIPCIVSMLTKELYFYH
Nature of the experiment: Caspase activity assay kit, CASP3. It counts as biochemical. The note with it: 10 μM. On the procedure: The enzyme activity of Caspase 1, Caspase 2, Caspase 3, Caspase 4, Caspase 6, Caspase 8 and Caspase 9 were determined via the activity assay kits (C1101, C1107, C1115, C1121, C1135, C1151 and C1157) from Beyotime (Shanghai, China). Then the experimental procedures were performed according to the manufacturer’s protocols.

For experiment [5], the target named is T1, ATG4B. Nature of the experiment: ATG4B oligomerization by non-reducing electrophoresis. It counts as biochemical. The note with it: ATG4B 5 μM; Ebselen 5, 25, 50 μM or FMK-9a 50 μM; 0.5, 1, 3 h.
Description: The aggregates formed could be reversibly regulated by a reducing agent, because an assay to add dithiothreitol (DTT) into the reaction was operated. […] Furthermore, we also evaluated the redox properties of analogues on ATG4B.
Experiment [6] concerns ATG4 (mainly ATG4B) in tumors. Description: ATG4 activity in xenografted tumors by FRET assay. It counts as in vivo, BALB/c-nu/nu mice. The note with it: SW620 xenografts, 5, 10, 20 mg/kg.
Description: (§2) FRET-based assay for ATG4B or ATG4A activity was operated as previously described [5, 17]. Briefly, Recombinant protein ATG4B (0.75 μg/ml) or ATG4A (5 μg/ml) was incubated with compounds in reaction buffer (150 mM NaCl, 20 mM Tris–HCl, pH 8.0, 0.1% CHAPS, 1 mM EDTA) at 37 °C. After 30 min, substrate FRET-GATE-16 (50 μg/ml) was added to a final volume of 50 μl. The reaction was recorded via relative fluorescence intensity ratio of 527 nm/477 nm (RFU). The final inhibition rate of the compound for ATG4 was calculated as: (RFUcompound-RFUNC)/(RFUCON-RFUNC) × 100%; respectively, NC as negative control without inhibitor, CON as control without enzymes. For ATG4 activity determination in cells and tissues, cells or separated tumor samples were homogenized in a native lysis buffer (150 mM NaCl, 20 mM Tris–HCl, pH 7.6, 1% TritonX-100, 1 mM EDTA) without protease inhibitors. Then 5 μg total proteins from each sample was added into FRET assay system after clean supernatant proteins were separated. The reaction was recorded via relative fluorescence intensity ratio of 527 nm/477 nm. Finally, the inhibition rates of ATG4B were calculated with the vehicle or CM group as the negative control (ATG4 activity defined as 100%).
Experiment [7] deals with T4, ATG4B 2CS (C292/361S) mutant (Homo sapiens, UniProt Q9Y4P1, C292S/C361S).
T4 construct: 6xHis; made in house; host or cells: E. coli BL21(DE3)
T4 sequence (Q9Y4P1 whole entry C292S/C361S): as the sequence (Q9Y4P1 whole entry C74S) above, with S74C, C292S, C361S counted along it
Description: FRET-based assay, ATG4B 2CS mutant. It counts as biochemical. Conditions: Ebselen 0.5 μM, 15-90 min; read-out: inhibition rate against ATG4B 2CS.
Description: as §2

In experiment [8] the test system is xenografted tumors. Description: Autophagy, apoptosis and Ki67 markers in xenografted tumors. It counts as in vivo, BALB/c-nu/nu mice. As for the experimental part:
Fig. 7 Ebselen suppresses colorectal cancer tumor growth. A A brief diagram of the animal experiment for subcutaneous xenografted tumor model. 2 × 10^6 (2e^6) SW620 cells were xenografted into BALB/c-nu/nu mice by subcutaneous injection (s.c.). After 10 days, mice were injected intraperitoneally (i.p.) with indicated doses of Ebselen every two days, and monitoring of tumor volume and body weight changes were performed. B–D Representative tumor images and tumor weight at the end time point were captured from SW620 cell-based xenografts. Mean tumor weight ± SEM (C) and mean tumor volume ± SEM (D) were shown. E The inhibitory effect of ATG4 in xenografted tumors was detected by FRET assay. F, I The protein level of autophagy and apoptosis in xenografted tumors were detected by western blot. Representative results were shown and the statistical results of each group were obtained from seven mice. J, K The immunohistochemistry analysis of Ki67 in xenografted tumors (group vehicle and Ebselen 10 mg/kg). Bar = 20 μm. The positive Ki67 area rate was obtained from the ratio of positive Ki67 area to total cell area by Image J
as §1

The subject of experiment [9] is WT HCT116. Nature of the experiment: Cell viability by CCK-8 assay, WT HCT116. It counts as cell-based. On the procedure: WT/ATG4B KO HCT116, WT/ATG4B KO SW620 and WT/ATG4B KO RKO cells were seeded in 96-well plate at 1000–1500 cells per well for cell viability assay, and seed in 6-well plate at 1 × 10^5 cells per well for cell number counting. After 12 h, the indicated drugs were added to the medium and cultured for another 96 h. Total viable cell numbers were counted by a cell counter (BioRAD), and cell viability was determined by cell-count-8 assay kit (CCK-8, Bimake, B34304) according to the manufacturer’s protocol.

Bounds are passed on as bounds.

In the case of `O=c1c2ccccc2[se]n1-c1ccccc1` [Ebselen], in experiment [1], the “covalent binding to ATG4B” value was “covalently binds to ATG4B”. In addition, the tumor suppression result in [2] was “slightly weaker potential for tumor suppression”. In experiment [3], the “thermal stability of C74S mutant” value is recorded as “still a little increased”. For the same compound, the “effect on CASP3 activity” value in experiment [4] is “certain inhibition”. Moreover, the ATG4B oligomerization result in experiment [5] is reported as “oligomerization occurred”. Further, in [6], the “activity of ATG4 in tumors” value was “significantly inhibited in a dose-dependent manner”. The inhibition at 0.5 µM in experiment [7] is less than 90%. In addition, in experiment [8] (Ebselen 10 mg/kg, immunohistochemistry), the “Ki67 positivity in tumors” value is “significant reduction of Ki67 positivity”. The “autophagy flux in tumors (LC3-II, p62)” value in experiment [8] (compared with the vehicle group) is reported as “significantly inhibited”. Also, the apoptosis of tumors entry in [8] (western blot) was “inhibited the apoptosis of tumors in a dose-dependent manner”. Besides, the “inhibition of the viability of CRC cell lines” value in experiment [9] (Fig. 6F) is listed as ~ 50%. This compound also displayed a half-maximal inhibitory concentration (IC50) in [9] (Homo sapiens, HCT-116, CCK-8, 96 h) of 18.9 µM.
